Reference: patent publication US8354428B2, “Solid state forms of laquinimod and its sodium salt” (Actavis Group PTC EHF, priority 2008, dated 2013)

Assays:
Format in all cases: physicochemical
[1] = Bulk density method of analysis; settings: about 10 g sample in 25 mL measuring cylinder
Experimental: (§1) The X-Ray powder diffraction was measured by an X-ray powder diffractometer equipped with a Cu-anode (λ=1.54 Angstrom), X-ray source operated at 40 kV, 40 mA and a Ni filter is used to strip K-beta radiation. Two-theta calibration is performed using an NIST SRM 1976, Corundum standard. The sample was analyzed using the following instrument parameters: measuring range=3-45° 20; step width=0.01579°; and measuring time per step=0.11 second. Infra-Red Spectroscopy (FT-IR): FT-IR spectroscopy was carried out with a Perkin Elmer Spectrum 100 series spectrometer. For the production of the KBr compacts approximately 2 mg of sample was powdered with 200 mg of KBr. The spectra were recorded in transmission mode ranging from 3800 to 450 cm^−1. Differential Scanning Calorimetry (DSC): DSC (Differential Scanning calorimetry) measurements were performed with a Differential Scanning calorimeter (Perkin Elmer diamond DSC) at a scan rate of 10° C. per minute. Bulk Density Method of Analysis About 10 g of sample was placed in a 25 mL measuring cylinder and measured the volume using the following formula: Bulk density=Weight of the sample (g)/Volume of the sample (mL) Tap Density Method of Analysis

[2] = Tap density method of analysis (Sotax tapping instrument, USP II); settings: about 10 g sample, tapped to constant volume
Experimental: About 10 g of sample was placed in a 25 mL measuring cylinder and measured the initial volume. The measuring cylinder was kept in a Sotax Tapping instrument (USP II) and measured the volume of the sample every 50 tappings until a constant volume is obtained using the following formula: Tap Density=Weight of the sample (g)/constant Volume of the sample after tapping (mL)

[3] = Particle size distribution by laser diffraction (Malvern Master Sizer 2000); settings: 90 volume-percent of particles below this diameter
Excerpt: As used herein, “Particle Size Distribution (P.S.D)” means the cumulative volume size distribution of equivalent spherical diameters as determined by laser diffraction in Malvern Master Sizer 2000 equipment or its equivalent. As used herein, DX means that X percent of the particles have a diameter less than a specified diameter D. Thus, a D90 or d(0.9) of less than 300 microns means that 90 volume-percent of the particles in a composition have a diameter less than 300 microns.

[4] = Polymorphic stability on storage in LDPE bag, checked by P-XRD
Experimental: as §1
Laquinimod sodium crystalline Form A1 was prepared according to the process exemplified in Example 2 and was packed in a self-sealing low-density polyethylene (LDPE) bag. […]

Bulk density [1]: 0.333 g/mL | Tapped density [2]: 0.476 g/mL | Particle size distribution d(0.9) [3]: 26.3 microns | Polymorphic stability (maintenance of the original P-XRD pattern) ([4]; stored 3 months at about 40±2° C., relative humidity about 75±5%): retain its polymorphic form | Polymorphic stability (maintenance of the original P-XRD pattern) ([4]; stored 6 months at 25±2° C., relative humidity about 60±5%): retain its polymorphic form
Structure (SMILES): CCN(C(=O)c1c(O)c2c(Cl)cccc2n(C)c1=O)c1ccccc1.[Na] [laquinimod sodium crystalline Form A1, N-ethyl-N-phenyl-1,2-dihydro-4-hydroxy-5-chloro-1-methyl-2-oxoquinoline-3-carboxamide sodium]
